Assay results published in US20260207564A1, “DOSAGE REGIME OF ORFORGLIPRON FOR TREATING A SUBJECT WITH TYPE 2 DIABETES (T2D), OBESITY, OR OVERWEIGHT WITH AT LEAST ONE WEIGHT RELATED COMORBIDITY” (Eli Lilly and Company, priority 2022, published 2026).
Read-outs that look alike come from different tables or passages of the source.

Columns and labels:
[1] = Phase 1 food effect study B, 16 mg daily dose reached by weekly escalation, healthy adults (Example 6); format: in vivo, human; conditions: for AUC(0-t): read-out: AUC(0-24), geometric LS mean (geometric CV %); for Cmax: read-out: Cmax, geometric LS mean (geometric CV %)
[2] = Phase 1 food effect study A, single 3 mg dose, healthy adults (Example 6); format: in vivo, human; conditions: for AUC(0-inf) / Cmax / half-life: human, in vivo, oral, 3 mg; for AUC(0-inf): read-out: AUC(0-∞), geometric LS mean (geometric CV %); for Cmax: read-out: Cmax, geometric LS mean (geometric CV %); for half-life: read-out: T1/2, geometric mean (range) (converted)
[3] = format: in vivo, human; conditions: for percentage of patients who attained an HbA1c of 7% or less: 26 weeks
Protocol: Two Phase 2 studies have evaluated the safety and efficacy of Compound 1a for the treatment of T2D and another for treatment of obesity or overweight with at least one weight related comorbidity.
The 36 and 45 mg cohorts were subdivided in a 36 mg-1 and 36 mg-2 as well as 45 mg-1 and 45 mg-2 respectively, as different starting doses, dose escalations and dose escalation steps were investigated in these subgroup cohorts (FIG. 4).
Eligible male or female participants were >18 years of age with T2D with a HbA1c 7.0% to 10.5% and a body mass index (BMI) of ≥23 kg/m2, treated with diet and exercise alone or with a stable dose of metformin and with a stable body weight (≤5% body weight gain and/or loss) for at least 3 months prior to screening/Visit 1.
The study period included a 2-week screening/lead in period and a 26-week treatment period. During the treatment period, doses were escalated for all treatment groups. The dose escalation period ranged from 4 to 12 weeks depending on dose group. The initial dose was 2 or 3 mg followed by additional escalation steps depending on assigned cohort (FIG. 4). […] All participants were provided healthy eating and exercise education by study personnel throughout the trial.
Key Safety and tolerability endpoints included the frequency of patient- and investigator-reported adverse events, rate and incidence of hypoglycaemia events (glucose <70 mg/dL [3.9 mmol/L] and ≥54 mg/dL [3.0 mmol/L], or glucose <54 mg/dL [3.0 mmol/L]), and change in safety laboratory parameters, electrocardiogram, and vital signs.
The estimand used for efficacy analyses was an “efficacy estimand”, representing the average treatment effect for the randomized population if the treatment was administered as intended, thus including data from all randomized participants who received at least one dose of study drug and excluding data after permanent discontinuation of study drug. All tests of treatment effects were conducted at a 2-sided alpha level of 0.05 without adjustment for multiple comparisons, and 2-sided 95% CIs were calculated.
Safety analyses were conducted by comparing safety of OFG with placebo and with dulaglutide irrespective of adherence to study drug. The safety analyses were conducted using the safety analysis set, which includes all randomized participants who received at least one dose of study drug. The results were presented in summary statistics, point estimates, and 95% confidence intervals along with p-values for treatment comparisons.

[4] = human, in vivo, oral, 16 mg, STUDY B - 16 mg (with titration), Fasted
[5] = human, in vivo, oral, 16 mg, STUDY B - 16 mg (with titration), Fed

Compound: Cc1cc(-n2nc3c(c2-n2ccn(-c4ccc5c(cnn5C)c4F)c2=O)[C@H](C)N(C(=O)c2cc4cc([C@H]5CCOC(C)(C)C5)ccc4n2[C@@]2(c4noc(=O)[nH]4)C[C@@H]2C)CC3)cc(C)c1F [OFG, 3-[(1S,2S)-1-[5-[(4S)-2,2-dimethyloxan-4-yl]-2-[(4S)-2-(4-fluoro-3,5-dimethylphenyl)-3-[3-(4-fluoro-1-methylindazol-5-yl)-2-oxoimidazol-1-yl]-4-methyl-6,7-dihydro-4H-pyrazolo[4,3-c]pyridine-5-carbonyl]indol-1-yl]-2-methylcyclopropyl]-4H-1,2,4-oxadiazol-5-one, 0.5 Ca hydrate]
- Tmax, median (range) ([1]; STUDY B - 16 mg (with titration), Fasted): 8.0 (4.0-16.0) h
- Tmax, median (range) ([1]; STUDY B - 16 mg (with titration), Fed): 8.0 (4.0-24.0) h
- AUC(0-t) [1, 4]: 1200 ng·h/mL
- Cmax [1, 4]: 80.5 ng/mL
- half-life ([1]; human, in vivo, oral, 16 mg, STUDY B - 16 mg (with titration), Fasted, read-out: T1/2, geometric mean (range) (converted)): 26 h
- AUC(0-t) [1, 5]: 1050 ng·h/mL
- Cmax [1, 5]: 67.5 ng/mL
- TEAE decreased appetite ([1]; study B): 69.7%
- TEAE nausea ([1]; study B): 48.5%
- TEAE vomiting ([1]; study B): 45.5%
- TEAEs occurrence over dosing ([1]; study B): occurred most often with the starting dose and decreased with dose escalation
- Tmax and T½ with or without food ([1]; study B): similar
- treatment emergent adverse events (TEAEs) severity ([1]; study B): mild
- AUC(0-24) lower when administered with food ([1]; study B, 16 mg daily dose): 18%
- Cmax lower in the fed state ([1]; study B, 16 mg daily dose, fed vs fasted): 21%
- Tmax, median (range) ([2]; STUDY A - 3 mg, Fasted): 8.0 (4.0-24.0) h
- AUC(0-inf) ([2]; STUDY A - 3 mg, Fasted): 362 ng·h/mL
- Cmax ([2]; STUDY A - 3 mg, Fasted): 13.4 ng/mL
- half-life ([2]; STUDY A - 3 mg, Fasted): 29.5 h
- AUC(0-inf) ([2]; STUDY A - 3 mg, Fed): 260 ng·h/mL
- Cmax ([2]; STUDY A - 3 mg, Fed): 10.1 ng/mL
- half-life ([2]; STUDY A - 3 mg, Fed): 27.9 h
- Tmax and T½ with or without food ([2]; study A): similar
- treatment emergent adverse events (TEAEs) severity ([2]; study A): mild
- AUC(0-∞) lower when administered with food ([2]; study A, single 3 mg dose): 24%
- Cmax lower in the fed state ([2]; study A, single 3 mg dose, fed vs fasted): 23%
- percentage of patients who attained an HbA1c of 7% or less ([3]; across OFG dose groups): 65.2% to 95.8
- most common adverse events ([3]; in vivo): gastrointestinal, mild to moderate in severity
- pulse rate changes from baseline ([3]; in vivo): +3.0 to +6.1 bpm
- systolic or diastolic blood pressure compared with dulaglutide or placebo ([3]; in vivo): no statistically significant differences
- fasting glucose ([3]; versus placebo): significant improvements versus placebo
- mean changes from baseline in body weight ([3]; week 26, OFG 3 mg): -3.7 kg
- body weight ETD versus dulaglutide ([3]; week 26, OFG 12 mg): -2.6 kg
- body weight ETD versus placebo ([3]; week 26, OFG 12 mg): -4.3 kg
- mean changes from baseline in body weight ([3]; week 26, OFG 12 mg): -6.5 kg
- body weight ETD versus dulaglutide ([3]; week 26, OFG 24 mg): -5.9 kg
- body weight ETD versus placebo ([3]; week 26, OFG 24 mg): -7.6 kg
- mean changes from baseline in body weight ([3]; week 26, OFG 24 mg): -9.7 kg
- body weight ETD versus dulaglutide ([3]; week 26, OFG 36 mg): -5.7 kg
- body weight ETD versus placebo ([3]; week 26, OFG 36 mg): -7.4 kg
- mean changes from baseline in body weight ([3]; week 26, OFG 36 mg): -9.5 kg
- body weight ETD versus dulaglutide ([3]; week 26, OFG 45 mg): -6.2 kg
- body weight ETD versus placebo ([3]; week 26, OFG 45 mg): -7.9 kg
- mean changes from baseline in body weight ([3]; week 26, OFG 45 mg): -10.1 kg
- mean change in HbA1c from baseline ([3]; week 26, across OFG dose groups): −0.77% to −1.67

Compound: dulaglutide [reference compound]
- percentage of patients who attained an HbA1c of 7% or less ([3]; dulaglutide 1.5 mg): 64.1%
- pulse rate changes from baseline ([3]; in vivo): +2.3 bpm
- mean changes from baseline in body weight ([3]; week 26, dulaglutide): -3.9 kg
- mean change in HbA1c from baseline ([3]; week 26, dulaglutide 1.5 mg): −1.1%
